Laboratory results reported in patent EP0454058B1, “Use of anthraquinone derivatives in the prophylaxis and treatment of viral diseases” (LOMAPHARM Rudolf Lohmann GmbH KG Pharmazeutische Fabrik, priority 1990, dated 1991).
≈ marks a conversion by molar mass, not a printed value. Read-outs that look alike come from different tables or passages of the source.

Experiments:
Format in all cases: cell-based
[1] = test system: Herpes simplex-Viren; assay: Plaque inhibition test (Plaquehemmungstest, agar diffusion test); conditions: read-out: Hemmhofdurchmesser (mm)
Description: Der Plaquehemmungstest (Agardiffusionstest) wird nach der Methode von E. C. Herrmann et al., 1960 (6) durchgeführt. Auch bei diesem Test werden virusinfizierte tierische Zellkulturen verwendet. In diesem Fall wird in Petrischalen durch ein mit Hilfe von Agar verfestigtes Medium das unkontrollierte Ausbreiten der Viren verhindert. Es kommt zu einer lokal begrenzten Zerstörung der Zellen, die nach einer Färbung als Löcher im Zellrasen erkennbar ist. Die Testsubstanzen werden auf Filterpapierblättchen aufgetragen und auf das feste Medium aufgelegt. In einem Bereich um diese Blättchen werden durch die virustatische Wirkung der Testsubstanz die Zellen geschützt und es entstehen so kreisförmige Hemmzonen. Die Größe der Hemmzone kann als Maß für die virustatische Wirksamkeit ausgewertet werden.
Durchführung: Ein Monolayer von MK2-, HeLa-, Rita-Zellen oder einer anderen geeigneten Zellinie wird in einer Petrischale mit Viren infiziert, so daß eine große Zahl von einzelnen Plaques entsteht. Nach einer Bindung von 45 Minuten bei Zimmertemperatur wird der Zellrasen einmal mit phosphatgepufferter Kochsalzlösung gewaschen und mit einer Agar-Oberschicht versehen. Auf diese Agarschicht werden Filterpapierblättchen (10 mm Durchmesser) gelegt, die mit einer Lösung der Testsubstanz getränkt sind. Nach 48 bis 72 Stunden Bebrütung bei 37 °C in CO2-Atmosphäre (5 %) wird eine zweite Oberschicht darübergegeben, die den Vitalfarbstoff Tetrazoliumchlorid enthält. Nach weiteren 24 Stunden Bebrütung wird der Hemmhofdurchmesser, unterteilt in "toxische Zone" und "therapeutische Zone", in mm ausgemessen.

[2] = test system: Cytomegalie-Viren; assay: Plaque reduction test (Plaquereduktionstest) in human foreskin fibroblasts; conditions: Fibroblast, plaque count versus virus control, read-out: Hemmung (%)
Description: Für die Prüfung der Wirksamkeit gegenüber Cytomegalie-Viren (CMV) werden mit diesen Viren infizierte menschliche Vorhautfibroblasten eingesetzt. Nach der Inkubation werden die entstandenen Plaques angefärbt und ausgezählt. Zur Auswertung wird die Plaquezahl unter dem Einfluß einer definierten Substanzmenge mit der Viruskontrolle verglichen.
Mit einer ähnlichen Versuchsanordnung wie im Plaquehemmungstest kann die Wirkung des Alizarins gegen Cytomegalie-Viren bestimmt werden (siehe Plaquereduktionstest, Methode 3). Die Untersuchung für das Cytomegalie-Virus in einer Zellinie von menschlichen Vorhautfibroblasten ergab die in Tabelle II angegebenen Werte für die Hemmung im Vergleich zur Viruskontrolle. Zur Auswertung wurden hier die gebildeten Plaques gezählt und im Vergleich zur Viruskontrolle ausgewertet (siehe Tabelle II). Tabelle II

[3] = test system: HHV 6 (Human herpes-Virus Typ 6); assay: Virus replication in human lymphocyte cultures, passages in presence of substance; conditions: 10 µg/ml, after three passages
Description: In weiteren Versuchen wurde die Wirkung von Alizarin auf die Vermehrung von HHV 6 (Human herpes-Virus Typ 6) untersucht. Diese Viren lassen sich aus dem Blut von immunsupprimierten Patienten mit Leukämie, Lymphomen oder Aids sowie von Kindern mit Roseola infantum isolieren.
Die Testung erfolgte in menschlichen Lymphocytenkulturen.

[4] = test system: Herpes simplex-Viren; assay: Dye test (Farbtest, crystal violet): virustatic effect in virus-infected cell cultures; conditions: for Extinktion bei 546 nm Hela-Zellen mit Herpes-Virus: virus control 0,144, cell control 0,648
Description: (§1) Der Farbtest, wie von Armstrong, 1971 (5) beschrieben, beruht darauf, daß die durch die Viren zerstörten Zellen nicht mehr gefärbt werden können. Je höher der Anteil an intakten Zellen nach der Inkubation mit dem jeweiligen Virus durch die virustatische Wirkung einer Substanz ist, um so mehr Farbstoff wird gebunden. Der Farbstoff läßt sich aus den gefärbten Zellen extrahieren und seine Menge kann in einem Photometer, z. B. bei Verwendung von Kristallviolett bei 546 nm, gemessen werden. Damit erlaubt der Test meßbare und reproduzierbare Angaben sowohl über die virustatische, wie auch durch Parallelversuche mit Zellkulturen ohne Viren über die cytotoxische Wirkung von Substanzen.
(§2) Durchführung: 10 mg der Testsubstanz wurden in 10 ml Ethylalkohol gelöst. Unter Verwendung des Mediums für die Zellkultur wurde eine Verdünnungsreihe mit Konzentrationen von 1,56 µg/ml bis 25 µg/ml Testsubstanz eingestellt. Diese Lösungen werden auf 24 Stunden alte MK2-, HeLa-, Rita-Zellen oder andere geeignete Zellen gegeben, nachdem diese vorher 45 Minuten zur Infektion mit einer Suspension von Viren überschichtet worden waren. Zur Prüfung der Cytotoxizität werden Parallelansätze ohne Viruszugabe analog mit den verschiedenen Verdünnungsstufen der Prüfsubstanz überschichtet. Die Versuchsansätze mit Virus und Testsubstanz bzw. nur der Testsubstanz werden 72 Stunden bei 37 °C bebrütet. Anschließend werden die Zellen fixiert und für 15 Minuten mit Kristallviolettlösung gefärbt. Nach Spülen mit Wasser wird der an die Zellen gebundene Farbstoff mit Ethanol extrahiert und in einem Photometer die Extinktion bei 546 nm (Absorption für Kristallviolett) gemessen.
Zur Auswertung werden die Extinktionen und auch die Konzentration mit einem Zellschutz von 50 % berechnet.
Falls die Testsubstanz keine wesentlichen cytotoxischen Eigenschaft besitzt, kann die antivirale Schutzwirkung nach nach folgender Formel in Prozent berechnet werden: (E3 - E2)/(E1 - E2)x 100 [formula] E1 = Extinktion der Zellkontrolle E2 = Extinktion der Viruskontrolle E3 = Extinktion der Versuchsansätze mit Virus und Alizarin

[5] = test system: Hela-Zellen; assay: Dye test (Farbtest), parallel runs without virus: cytotoxicity; conditions: for Extinktion bei 546 nm Hela-Zellen: cells without virus, 72 h
Description: as §1, §2

[6] = Substanzmenge 10 µg/ml pro Testblättchen, Rita-Zellen
[7] = Substanzmenge 20 µg/ml pro Testblättchen, Rita-Zellen
[8] = Substanzmenge 40 µg/ml pro Testblättchen, Rita-Zellen

**Q.** With `O=C1c2ccc(O)cc2C(=O)c2ccc(O)cc21` [Anthraflavinsäure (5), 2,6-Dihydroxyanthrachinon] as the molecule, how does the zone of inhibition at 10 µg/mL [1, 6] read?
**A.** The zone of inhibition at 10 µg/mL was 9 mm.

**Q.** And the zone of inhibition at 20 µg/mL [1, 7]?
**A.** Its zone of inhibition at 20 µg/mL is 13 mm.

**Q.** And the zone of inhibition at 40 µg/mL [1, 8]?
**A.** The zone of inhibition at 40 µg/mL was 15 mm.

**Q.** Which zone of inhibition at 10 µg/mL [1, 6] does the source give for `O=C1c2ccccc2C(=O)c2c(O)ccc(O)c21` [Chinizarin (3), 1,4-Dihydroxyanthrachinon] here?
**A.** Its zone of inhibition at 10 µg/mL is 11 mm.

**Q.** And the zone of inhibition at 20 µg/mL [1, 7]?
**A.** Its zone of inhibition at 20 µg/mL is 13 mm.

**Q.** And the zone of inhibition at 40 µg/mL [1, 8]?
**A.** The zone of inhibition at 40 µg/mL was 16 mm.

**Q.** Which results are given for `O=C1c2ccccc2C(=O)c2c1cc(S(=O)(=O)O)c(O)c2O` [Alizarinsulfonsäure (2), 9,10-Dihydro-3,4-dihydroxy-9,10-dioxo-2-anthracensulfonsäure.Mononatriumsalz]?
**A.** zone of inhibition at 10 µg/mL [1, 6]: 10 mm; zone of inhibition at 20 µg/mL [1, 7]: 12 mm; zone of inhibition at 40 µg/mL [1, 8]: 19 mm

**Q.** How did the inhibition at 5 µg/mL ([2]; 5 µg/ml) turn out when `O=C1c2ccccc2C(=O)c2c1ccc(O)c2O` [Alizarin, 1,2-Dihydroxy-9,10-anthracendion] was run?
**A.** The inhibition at 5 µg/mL was 10%.

**Q.** What about the inhibition at 10 µg/mL ([2]; 10 µg/ml) of the same molecule?
**A.** Its inhibition at 10 µg/mL is 60%.

**Q.** And the inhibition at 15 µg/mL ([2]; 15 µg/ml)?
**A.** Its inhibition at 15 µg/mL is 100%.

**Q.** What about the inhibition at 20 µg/mL ([2]; 20 µg/ml) of the same molecule?
**A.** Its inhibition at 20 µg/mL is 100%.

**Q.** And the “Virus nachweisbar in den Zellen” value [3]?
**A.** Its value is “kein Virus mehr nachweisbar”.

**Q.** And the “Extinktion bei 546 nm Hela-Zellen mit Herpes-Virus” value ([4]; 25 µg/ml, 72 h)?
**A.** Its value is 0,235.

**Q.** What about the “Extinktion bei 546 nm Hela-Zellen mit Herpes-Virus” value ([4]; 3,125 µg/ml, 72 h) of the same molecule?
**A.** The value was 0,329.

**Q.** And the “Extinktion bei 546 nm Hela-Zellen mit Herpes-Virus” value ([4]; 1,56 µg/ml, 72 h)?
**A.** Its value is 0,206.

**Q.** And the “Extinktion bei 546 nm Hela-Zellen mit Herpes-Virus” value ([4]; 6,25 µg/ml, 72 h)?
**A.** The value was 0,403.

**Q.** And the “Extinktion bei 546 nm Hela-Zellen mit Herpes-Virus” value ([4]; 12,5 µg/ml, 72 h)?
**A.** Its value is 0,338.

**Q.** What about the inhibition at 3.125 µg/mL ([4]; 72 h, 3.125 µg/mL, Hela-Zellkulturen, read-out: Zellschutz (%)) of the same molecule?
**A.** Its inhibition at 3.125 µg/mL is 37%.

**Q.** And the inhibition at 25 µg/mL ([4]; 72 h, 25 µg/ml, Hela-Zellkulturen, read-out: Zellschutz (%))?
**A.** Its inhibition at 25 µg/mL is 18%.

**Q.** And the inhibition at 1.56 µg/mL ([4]; 72 h, 1,56 µg/ml, Hela-Zellkulturen, read-out: Zellschutz (%))?
**A.** Its inhibition at 1.56 µg/mL is 12%.

**Q.** What about the inhibition at 6.25 µg/mL ([4]; 72 h, 6,25 µg/ml, Hela-Zellkulturen, read-out: Zellschutz (%)) of the same molecule?
**A.** Its inhibition at 6.25 µg/mL is 51%.

**Q.** What about the inhibition at 12.5 µg/mL ([4]; 72 h, 12,5 µg/ml, Hela-Zellkulturen, read-out: Zellschutz (%)) of the same molecule?
**A.** Its inhibition at 12.5 µg/mL is 38%.

**Q.** What about the EC50 ([4]; experiment of Tabelle I a, read-out: Konzentration, die einen Zellschutz von 50 % bewirkt) of the same molecule?
**A.** The EC50 was 5.96 µg/mL (≈ 24.8 µM).

**Q.** And the IC50 ([4]; in presence of 10 % Serum, read-out: 50 % Hemmwert)?
**A.** The IC50 was 11.3 µg/mL.

**Q.** And the IC50 ([4]; mean of four experiments, read-out: Mittelwert für eine 50 %ige Hemmung der Virusvermehrung)?
**A.** Its IC50 is 4.87 µg/mL (≈ 20.3 µM).

**Q.** What about the zone of inhibition at 10 µg/mL [1] of the same molecule?
**A.** The zone of inhibition at 10 µg/mL was 14 mm.

**Q.** And the zone of inhibition at 20 µg/mL [1]?
**A.** Its zone of inhibition at 20 µg/mL is 18 mm.

**Q.** And the zone of inhibition at 40 µg/mL [1]?
**A.** The zone of inhibition at 40 µg/mL was 20 mm.

**Q.** And the “Extinktion bei 546 nm Hela-Zellen” value ([5]; 25 µg/ml)?
**A.** The value was 0,328.

**Q.** And the “Extinktion bei 546 nm Hela-Zellen” value ([5]; 3,125 µg/ml)?
**A.** Its value is 0,693.

**Q.** What about the “Extinktion bei 546 nm Hela-Zellen” value ([5]; 1,56 µg/ml) of the same molecule?
**A.** The value was 0,655.

**Q.** What about the “Extinktion bei 546 nm Hela-Zellen” value ([5]; 6,25 µg/ml) of the same molecule?
**A.** The value was 0,634.

**Q.** And the “Extinktion bei 546 nm Hela-Zellen” value ([5]; 12,5 µg/ml)?
**A.** The value was 0,510.

**Q.** And the “cytotoxische Wirkung” value ([5]; at the higher concentrations of Tabelle I a / I b)?
**A.** Its value is “schwache cytotoxische Wirkung”.

**Q.** Which zone of inhibition at 10 µg/mL [1, 6] does the source give for `O=C1c2cccc(O)c2C(=O)c2c(O)cccc21` [Chrysazin (4), 1,8-Dihydroxyanthrachinon] here?
**A.** Its zone of inhibition at 10 µg/mL is 8 mm.

**Q.** What about the zone of inhibition at 20 µg/mL [1, 7] of the same molecule?
**A.** The zone of inhibition at 20 µg/mL was 12 mm.

**Q.** What about the zone of inhibition at 40 µg/mL [1, 8] of the same molecule?
**A.** Its zone of inhibition at 40 µg/mL is 16 mm.
